Measured values reported in patent US20090023667A1 (priority 2005, published 2009).
Read-outs that look alike come from different tables or passages of the source.

How the values were obtained:
Rhizoctonia solani [1] = assay: Test Example 4: control test on paddy rice sheath blight, spraying; assay type: in vivo; settings: 60 ppm
Experimental: A compound solution of a prescribed concentration was sprayed on three 1/5000a rice pots (cultivar: Koshihikari; 4 leaf stage). After one day from the spraying, Rhizoctonia solani cultured on a rice chaff/bran medium was inoculated on the basal of the rice plant. After 10 days from the inoculation, the extended lesion length of sheath blight of the whole stem was examined. The control value was calculated according to the following equation (3 replications).
(§1) Control Value=(1−average lesion length per a stem in the treated plot/average lesion length per a stem in the untreated plot)×100

Pyricularia oryzae [2] = assay type: in vivo
Pyricularia oryzae [3] = assay: whole plant or invertebrate; assay type: in vivo; settings: for Control value: 60 ppm; for pest or weed control at 60 ppm: Pyricularia oryzae, 168 h, read-out: Control value
Pyricularia oryzae [4] = assay type: in vivo; remark: listed apart in the source
Pyricularia oryzae [5] = assay type: in vivo; remark: listed apart in the source
Pythium sp = assay: Test Example 9: control test on seedling blight (Pythium sp), irrigation; assay type: in vivo; settings: irrigation 500 ml per box
Experimental: 150 g of rice seeds of rice (cultivar: Nihonbare) per a box was sowed on a commercial nursery box. After the sowing, the box was treated by irrigation with a compound solution which was diluted to the prescribed concentration at a ratio of 500 ml per a box before covering the seeds with soil. Infected soil, which was made by adding sterilized water to Pythium sp cultured on a PDA medium and pulverizing whole medium and mixing to a commercial soil, was used for a bed soil. After covering the seeds with soil, the seeds were incubated at 30 degree centigrade for 2 days and then arranged under a condition of 5 degree centigrade for 2 days to enhance disease emergence. After the low temperature treatment, the seeds were grown in a greenhouse.
(§2) Control Value=(1−number of infected seedlings in the treated plot/number of infected seedlings in the untreated plot)×100

Rhizoctonia solani [6] = assay: Test Example 6: control test on paddy rice sheath blight, nursery box application; assay type: in vivo; settings: nursery box application of granule
Experimental: (§3) After 30 days from the treatment, Rhizoctonia solani cultured on a rice chaff/bran medium was inoculated on the basal of the rice plant. After 10 days from the inoculation, the extended lesion length of sheath blight of the whole stem was examined. The control value was calculated according to the following equation (3 replications).
as §1

Rhizoctonia solani [7] = assay: Test Example 5: control test on paddy rice sheath blight, submerged application; assay type: in vivo; settings: submerged application of granule
Experimental: as §3, with “14” for “30”
as §1

Rhizopus chinensis = assay: Test Example 8: control test on seedling blight (Rhizopus sp), irrigation; assay type: in vivo; settings: irrigation 500 ml per box
Experimental: 150 g of rice seeds (cultivar: Nihonbare) per a box was sowed in a commercial nursery box. After the sowing, the box was treated by irrigation with a compound solution which was diluted to the prescribed concentration at a ratio of 500 ml per a box before covering the seeds with soil. Infected soil, which was made by adding sterilized water to Rhizopus chinensis cultured on a PDA medium and pulverizing whole medium and mixing to a commercial soil, was used for a bed soil. For covering the seeds, a commercial soil was used as it was. After covering the seeds with soil, the seeds were incubated at 32 degree centigrade for 2 days and then grown in a greenhouse.
After 18 days from the sowing, the severity index for 300 seedlings per each compound was examined in the following criteria. The control value was calculated according to the following equation from the average severity obtained by averaging the severity index of each seedling.
Severity index 0: No lesion • 1: Root browning or fat root observed • 2: Defective growth • 3: Withered to death
(§4) Control Value=(1−average severity in the treated plot/average severity in the untreated plot)×100

rice Bakanae disease = assay: Test Example 7: control test on rice Bakanae disease, seed immersion; assay type: in vivo; settings: seed immersion 24 hours
Experimental: 150 g of dry rice seeds of naturally infected with rice Bakanae disease (cultivar: Nihonbare) was immersed in a compound solution which was diluted with water to have a prescribed concentration at a volume ratio of 1:1 for 24 hours (liquid temperature; 20 degree centigrade) and air-dried. Subsequently, the seeds were soaked in water at 15 degree centigrade for 4 days and subjected to a sprouting in water at 30 degree centigrade for 24 hours, and then sowed in a nursery box. After the sowing, the seeds were incubated at 30 degree centigrade for 2 days and grown in a greenhouse. After 21 days from the sowing, the number of seedlings showing symptoms of Bankanae disease for 300 seedlings per each chemical was examined. The control value was calculated according to the following equation.
as §2

clubroot = assay: Test Example 11: control test on clubroot of cabbages, soil treatment; assay type: in vivo, Plasmodiophora brassicae; settings: dust formulation mixed in soil, 60 gai/10a
Experimental: A dust formulation in a prescribed amount was mixed in soil and cabbage seedlings (cultivar: Shiki-dori) were planted in the field where was recognized to be infected by clubroot. After 60 days from the treatment, plants were picked out, and clubroot formation was examined according to the degree of severity. The control value was calculated according to the following equation from the average severity obtained by averaging the severity index in each plot.
Severity index 0: No clubroot formed • 1: Cluroot was formed at a portion of from not less than 1% to less than 25% of the whole root • 2: Cluroot was formed at a portion of from not less than 25% to less than 50% of the whole root • 3: Cluroot was formed at a portion of from not less than 50% to less than 75% of the whole root • 4: Cluroot was formed at a portion of not less than 75% of the whole root
as §4

[8] = system: bacterial seedling blight; assay: Test Example 10: control test on bacterial seedling blight, seed immersion; assay type: in vivo; settings: seed immersion 24 hours
Experimental: 150 g of dry rice seeds of naturally infected with bacterial seedling blight (cultivar: Nihonbare) was immersed in a compound solution which was diluted with water to have a prescribed concentration at a volume ratio of 1:1 (liquid temperature; 20 degree centigrade) for 24 hours and air-dried. Subsequently, the seeds were soaked in water at 15 degree centigrade for 4 days and subjected to a sprouting in water at 30 degree centigrade for 24 hours, and then sowed in a nursery box. After the sowing, the seeds were incubated at 30 degree centigrade for 2 days and grown in a greenhouse. After 21 days from the sowing, the severity index for 300 seedlings per each compound was examined on the basis of the following criteria, and the control value was calculated according to the following equation from the average severity obtained by averaging the severity index of each seedling.
Severity index 0: healthy seedling • 1: yellowing or etiolated seedling • 2: dead seedling (withered)
as §4

[9] = rice blast, sprayed at 60 ppm active ingredient, lesions after 7 days

Structure (SMILES): C=C(Cl)COC(=O)NC(CNC(=O)c1ccc(C)cc1)C(C)C (stereo not shown) [Compound 15]
- Control value (Rhizoctonia solani [1]): 4
- Effect (class of control value) (Pyricularia oryzae [2]; in vivo): A (key: A: Not less than 80%; B: Not less than 50% to less than 80%; C: Less than 50%)
- Control value (Pyricularia oryzae [3]): 94
- Control value (Pyricularia oryzae [4]; in vivo): 95
- Control value (Pyricularia oryzae [5]; in vivo): 95
- Control value (Pythium sp; 60 ppm): 4
- Control value (Rhizoctonia solani [6]; 7.5 gai/box): 3
- Control value (Rhizoctonia solani [7]; 225 gai/10a): 5

Structure (SMILES): N#Cc1c(Cl)c(Cl)c(Cl)c(C#N)c1Cl [TPN, reference compound]
- Control value (Rhizopus chinensis; 800 ppm): 87

Structure (SMILES): Cc1ccc(C(=O)NC(CNC(=O)OC2CCCCC2Cl)C(C)C)cc1 (stereo not shown) [Compound 17, N-(2-chlorocyclohexyloxycarbonyl)-N′-(4-methylbenzoyl)-3-methyl-1,2-butanediamine]
- Control value (Rhizoctonia solani [1]): 5
- Effect (class of control value) (Pyricularia oryzae [2]; [9]): A (Not less than 80%)
- pest or weed control at 60 ppm (Pyricularia oryzae [3]): 95%
- Control value (Rhizopus chinensis; 60 ppm): 3

Structure (SMILES): CCC(C)C(CNC(=O)c1cc2ccccc2o1)NC(=O)OCC(F)(F)F (stereo not shown) [Compound 32]
- Control value (rice Bakanae disease; 60 ppm): 12
- Control value (Rhizoctonia solani [1]): 5
- Effect (class of control value) (Pyricularia oryzae [2]; in vivo): A (key: A: Not less than 80%; B: Not less than 50% to less than 80%; C: Less than 50%)
- Control value (Pyricularia oryzae [3]): 95

Structure (SMILES): Cc1cc(O)no1 [Hydroxyisoxazole, reference compound]
- Control value (Pythium sp; 800 ppm): 90

Structure (SMILES): O=[N+]([O-])c1ccc(NS(=O)(=O)c2ccc(Cl)c(C(F)(F)F)c2)c(Cl)c1 [Flusulfamide]
- Control value (clubroot): 93

Structure (SMILES): CC(C)C(CNC(=O)c1cc2ccccc2s1)NC(=O)OCC(F)(F)F (stereo not shown) [Compound 34]
- Control value (Rhizoctonia solani [1]): 7
- Effect (class of control value) (Pyricularia oryzae [2]; in vivo): A (key: A: Not less than 80%; B: Not less than 50% to less than 80%; C: Less than 50%)
- Control value (Pyricularia oryzae [3]): 97
- Control value (Rhizopus chinensis; 60 ppm): 3

Structure (SMILES): CCn1cc(C(=O)O)c(=O)c2cc3c(cc21)OCO3 [Oxolinic acid, reference compound]
- Control value ([8]; 500 ppm): 89

Structure (SMILES): Cc1ccc(C(=O)NC(CNC(=O)OCC(F)(F)F)C(C)C)cc1 (stereo not shown) [Compound 6, N-(2,2,2-trifluoroethyloxycarbonyl)-N′-(4-methylbenzoyl)-3-methyl-1,2-butanediamine]
- Control value (Rhizoctonia solani [1]): 3
- Effect (class of control value) (Pyricularia oryzae [2]; [9]): A (Not less than 80%)
- pest or weed control at 60 ppm (Pyricularia oryzae [3]): 97%
- Control value (Pyricularia oryzae [4]; rice blast, nursery box application of granule, 7.5 gai/box): 96
- Control value (Pyricularia oryzae [5]; rice blast, submerged application of granule, 225 gai/10a): 95
- Control value (Rhizoctonia solani [6]; 7.5 gai/box): 4
- Control value (Rhizoctonia solani [7]; 225 gai/10a): 5

Structure (SMILES): CCCCNC(=O)n1c(NC(=O)OC)nc2ccccc21 [Benomyl, reference compound]
- Control value (rice Bakanae disease; 1000 ppm): 98

Structure (SMILES): CC(C)C(CNC(=O)c1cc2ccccc2o1)NC(=O)OCC(F)(F)F (stereo not shown) [Compound 28]
- Control value ([8]; 60 ppm): 6
- Control value (Rhizoctonia solani [1]): 6
- Effect (class of control value) (Pyricularia oryzae [2]; in vivo): A (key: A: Not less than 80%; B: Not less than 50% to less than 80%; C: Less than 50%)
- Control value (Pyricularia oryzae [3]): 97
- Control value (Pyricularia oryzae [4]; in vivo): 96
- Control value (Pyricularia oryzae [5]; in vivo): 96
- Control value (Rhizoctonia solani [6]; 7.5 gai/box): 5
- Control value (Rhizoctonia solani [7]; 225 gai/10a): 6

Structure (SMILES): CNC(=O)/C(=N/OC)c1ccccc1CO/N=C(C)/C(=N/OC)C(/C)=N/OC [Oryzastrobin, reference compound]
- Control value (Pyricularia oryzae [5]; rice blast, submerged application of granule, 100 gai/10a): 99
- Control value (Rhizoctonia solani [6]; 3.5 gai/box): 94
- Control value (Rhizoctonia solani [7]; 100 gai/10a): 95

Structure (SMILES): N#Cc1c[nH]cc1-c1cccc2c1OC(F)(F)O2 [Fludioxonil, reference compound]
- Control value (rice Bakanae disease; 250 ppm): 99

Structure (SMILES): CCC(C)C(CNC(=O)c1nc2ccccc2s1)NC(=O)OCC(F)(F)F (stereo not shown) [Compound 33]
- Control value (rice Bakanae disease; 60 ppm): 8
- Control value (Rhizoctonia solani [1]): 6
- Effect (class of control value) (Pyricularia oryzae [2]; in vivo): A (key: A: Not less than 80%; B: Not less than 50% to less than 80%; C: Less than 50%)
- Control value (Pyricularia oryzae [3]): 96

Structure (SMILES): CC(C)NC(=O)N1CC(=O)N(c2cc(Cl)cc(Cl)c2)C1=O [Iprodione, reference compound]
- Control value (Rhizopus chinensis; 1000 ppm): 89
